Assay results reported in patent US20240327334A1, “Covalent Inhibitors As Antiviral Agents” (Enanta Pharmaceuticals, Inc., priority 2022, published 2024).

How the values were obtained:
[1] = target: SARS-CoV-2 Papain-like (PLpro) protease (Severe acute respiratory syndrome coronavirus 2, UniProt P0DTD1); experiment: SARS-CoV-2 Papain-like (PLpro) protease biochemical enzyme inhibition assay (ubiquitin-fluorophore substrate, Ub-R110); settings: Ub-R110 substrate; run in duplicate; read-out: PLpro IC50
SARS-CoV-2 replicon = experiment: microbe, parasite or virus in culture; assay type: cell-based; settings: Severe acute respiratory syndrome coronavirus 2, Huh-7

| SMILES | IC50 [1] [nM] | EC50 (SARS-CoV-2 replicon) [nM] |
| --- | --- | --- |
| C#CCNC(=O)C(=O)NCc1ccccc1C(=O)NC1(c2cc(F)cc(-c3cn(C)nc3C)c2)CC1 [Example 234] | < 100 | < 1000 |
| Cn1cc(-c2cc(F)cc(C3(NC(=O)c4ccccc4CNC(=O)C(=O)NCC#N)CC3)c2)cn1 [Example 235] | < 100 | > 10000 |
| Cc1nn(C)cc1-c1cc(C2(NC(=O)c3ccccc3CNC(=O)C(=O)NCC#N)CC2)ccc1F [Example 236] | 100 to 1000 | > 10000 |
| C#CCNC(=O)C(=O)NCc1ccccc1C(=O)NC1(c2ccc(F)c(-c3cn(C)nc3C)c2)CC1 [Example 237] | < 100 | < 1000 |
| C#CCNC(=O)C(=O)NCc1ccccc1C(=O)NC1(c2cc(F)cc(-c3cnn(C)c3)c2)CC1 [Example 238] | < 100 | < 1000 |
| N#CCNC(=O)C(=O)NCc1ccccc1C(=O)NC1(c2cc(F)c(F)c(-c3cccs3)c2)CC1 [Example 239] | < 100 | > 10000 |
| N#CCNC(=O)C(=O)NCc1ccccc1C(=O)NC1(c2cc(F)c(F)c(-c3cnn(C4CC4)c3)c2)CC1 [Example 240] | < 100 | > 10000 |
| C#CCNC(=O)C(=O)NCc1ccccc1C(=O)NC1(c2cc(F)c(F)c(-c3cccs3)c2)CC1 [Example 241] | < 100 | 1000 to 10000 |
| C#CCNC(=O)C(=O)NCc1ccccc1C(=O)NC1(c2cc(F)c(F)c(-c3cnn(C4CC4)c3)c2)CC1 [Example 242] | < 100 | < 1000 |
| O=C(NCC#Cc1nccs1)C(=O)NCc1ccccc1C(=O)NC1(c2cc(F)cc(-c3cnn(C4CC4)c3)c2)CC1 [Example 243] | < 100 | < 1000 |
| C#CCNC(=O)C(=O)NCc1ccccc1C(=O)NC1(c2cc(OC)cc(-c3cnn(C4CC4)c3)c2)CC1 [Example 244] | < 100 | < 1000 |
| C#CCNC(=O)C(=O)NCc1ccccc1C(=O)NC1(c2ccc(OC)c(-c3cnn(C4CC4)c3)c2)CC1 [Example 245] | < 100 | < 1000 |
| COc1cc(-c2cnn(C3CC3)c2)cc(C2(NC(=O)c3ccccc3CNC(=O)C(=O)NCC#Cc3nccs3)CC2)c1 [Example 246] | < 100 | < 1000 |
| COc1ccc(C2(NC(=O)c3ccccc3CNC(=O)C(=O)NCC#Cc3nccs3)CC2)cc1-c1cnn(C2CC2)c1 [Example 247] | < 100 | < 1000 |
| O=C(NCC#Cc1ncc(F)cn1)C(=O)NCc1ccccc1C(=O)NC1(c2cc(F)cc(-c3cnn(C4CC4)c3)c2)CC1 [Example 248] | < 100 | < 1000 |
| O=C(NCC#Cc1ncc(F)s1)C(=O)NCc1ccccc1C(=O)NC1(c2cc(F)cc(-c3cnn(C4CC4)c3)c2)CC1 [Example 249] | < 100 | < 1000 |
| CN(C)CCn1cc(-c2cc(F)cc(C3(NC(=O)c4ccccc4CNC(=O)C(=O)NCC#Cc4ccccn4)CC3)c2)cn1 [Example 250] | < 100 | < 1000 |
| CN(C)CCn1cc(-c2cc(F)cc(C3(NC(=O)c4ccccc4CNC(=O)C(=O)NCC#Cc4nccs4)CC3)c2)cn1 [Example 251] | < 100 | < 1000 |
| O=C(NCC#Cc1ccccn1)C(=O)NCc1ccccc1C(=O)NC1(c2cc(F)cc(-c3cnn(C4CC4)c3)c2)CC1 [Example 252] | < 100 | < 1000 |

| SMILES | IC50 [1] [nM] | EC50 (SARS-CoV-2 replicon) [nM] |
| --- | --- | --- |
| O=C(NCC#Cc1nccs1)C(=O)NCc1ccccc1C(=O)NC1(c2cc(F)cc(-c3cnn(C4COC4)c3)c2)CC1 [Example 253] | < 100 | < 1000 |
| C[C@@H](C#Cc1nccs1)NC(=O)C(=O)NCc1ccccc1C(=O)NC1(c2cc(F)cc(-c3cnn(C4COC4)c3)c2)CC1 [Example 254] | < 100 | < 1000 |
| CN1CCC(n2cc(-c3cc(F)cc(C4(NC(=O)c5ccccc5CNC(=O)C(=O)NCC#Cc5nccs5)CC4)c3)cn2)CC1 [Example 255] | < 100 | < 1000 |
| CN1CCC(n2cc(-c3cc(F)cc(C4(NC(=O)c5ccccc5CNC(=O)C(=O)NCC#Cc5ncco5)CC4)c3)cn2)CC1 [Example 257] | < 100 | < 1000 |
| COc1cccnc1C#CCNC(=O)C(=O)NCc1ccccc1C(=O)NC1(c2cc(F)cc(-c3cn(C)nc3C)c2)CC1 [Example 258] | < 100 | < 1000 |
| Cc1nn(C)cc1-c1cc(F)cc(C2(NC(=O)c3ccccc3CNC(=O)C(=O)NCC#Cc3ncccc3Cl)CC2)c1 [Example 259] | < 100 | < 1000 |
| Cc1cccnc1C#CCNC(=O)C(=O)NCc1ccccc1C(=O)NC1(c2cc(F)cc(-c3cn(C)nc3C)c2)CC1 [Example 260] | < 100 | < 1000 |
| COc1cccnc1C#CCNC(=O)C(=O)NCc1ccccc1C(=O)NC1(c2cc(F)cc(-c3cnn(C4CC4)c3)c2)CC1 [Example 261] | < 100 | < 1000 |
| Cc1cccnc1C#CCNC(=O)C(=O)NCc1ccccc1C(=O)NC1(c2cc(F)cc(-c3cnn(C4CC4)c3)c2)CC1 [Example 262] | < 100 | < 1000 |
| O=C(NCC#Cc1ncccc1Cl)C(=O)NCc1ccccc1C(=O)NC1(c2cc(F)cc(-c3cnn(C4CC4)c3)c2)CC1 [Example 263] | < 100 | < 1000 |
| C[C@@H](C#Cc1ncccc1Cl)NC(=O)C(=O)NCc1ccccc1C(=O)NC1(c2cc(F)cc(-c3cnn(C4CC4)c3)c2)CC1 [Example 264] | < 100 | < 1000 |
| COc1cccnc1C#C[C@H](C)NC(=O)C(=O)NCc1ccccc1C(=O)NC1(c2cc(F)cc(-c3cnn(C4CC4)c3)c2)CC1 [Example 265] | < 100 | < 1000 |
| Cc1cccnc1C#C[C@H](C)NC(=O)C(=O)NCc1ccccc1C(=O)NC1(c2cc(F)cc(-c3cnn(C4CC4)c3)c2)CC1 [Example 266] | < 100 | < 1000 |
| CC(C)Oc1cccnc1C#CCNC(=O)C(=O)NCc1ccccc1C(=O)NC1(c2cc(F)cc(-c3cnn(C4CC4)c3)c2)CC1 [Example 267] | < 100 | < 1000 |
| Cn1cc2cc(C3(NC(=O)c4ccccc4CNC(=O)C(=O)NCC#Cc4ncccc4Cl)CC3)ccc2n1 [Example 269] | < 100 | < 1000 |
| COc1cccnc1C#CCNC(=O)C(=O)NCc1ccccc1C(=O)NC1(c2ccc3nn(C)cc3c2)CC1 [Example 270] | < 100 | < 1000 |
| Cc1cccnc1C#CCNC(=O)C(=O)NCc1ccccc1C(=O)NC1(c2ccc3nn(C)cc3c2)CC1 [Example 271] | < 100 | < 1000 |
| C[C@@H](C#Cc1ncccc1Cl)NC(=O)C(=O)NCc1ccccc1C(=O)NC1(c2ccc3nn(C)cc3c2)CC1 [Example 272] | < 100 | < 1000 |
| COc1cccnc1C#C[C@H](C)NC(=O)C(=O)NCc1ccccc1C(=O)NC1(c2ccc3nn(C)cc3c2)CC1 [Example 273] | < 100 | < 1000 |

| SMILES | IC50 [1] [nM] | EC50 (SARS-CoV-2 replicon) [nM] |
| --- | --- | --- |
| Cc1cccnc1C#C[C@H](C)NC(=O)C(=O)NCc1ccccc1C(=O)NC1(c2ccc3nn(C)cc3c2)CC1 [Example 274] | < 100 | < 1000 |
| Cc1nn(C)cc1-c1cc(F)cc(C2(NC(=O)c3ccccc3CNC(=O)C(=O)N[C@@H](C)C#Cc3ncccc3Cl)CC2)c1 [Example 275] | < 100 | < 1000 |
| CC(C)n1ncnc1C#C[C@H](C)NC(=O)C(=O)NCc1ccccc1C(=O)NC1(c2cc(F)cc(-c3cnn(C4CC4)c3)c2)CC1 [Example 276] | < 100 | < 1000 |
| CC(C)n1ccnc1C#CCNC(=O)C(=O)NCc1ccccc1C(=O)NC1(c2cc(F)cc(-c3cnn(C4CC4)c3)c2)CC1 [Example 277] | < 100 | < 1000 |
| COc1cc(C2(NC(=O)c3ccccc3CNC(=O)C(=O)N[C@@H](C)C#Cc3ncccc3Cl)CC2)cc2cn(C3CC3)nc12 [Example 279] | < 100 | < 1000 |
| C[C@@H](C#Cc1ncccc1Cl)NC(=O)C(=O)NCc1ccccc1C(=O)NC1(c2cc(F)cc(-c3cnn(CC(C)(C)O)c3)c2)CC1 [Example 280] | < 100 | < 1000 |
| CC(C)(O)Cn1cc(-c2cc(F)cc(C3(NC(=O)c4ccccc4CNC(=O)C(=O)NCC#Cc4ncccc4Cl)CC3)c2)cn1 [Example 281] | < 100 | < 1000 |
| CC(C)(O)c1cccc(-c2cc(C3(NC(=O)c4ccccc4CNC(=O)C(=O)NCC#N)CC3)c3ccccc3c2)n1 [Example 283] | < 100 | < 1000 |
| Cc1n[nH]cc1-c1cc(C2(NC(=O)c3ccccc3CNC(=O)C(=O)NCC#N)CC2)c2ccccc2c1 [Example 284] | < 100 | < 1000 |
| N#CCNC(=O)C(=O)NCc1ccccc1C(=O)NC1(c2cc(-c3cnn(C(F)F)c3)cc3ccccc23)CC1 [Example 285] | < 100 | < 1000 |
| N#CCNC(=O)C(=O)NCc1ccccc1C(=O)NC1(c2cc(-c3cnn(CC(F)F)c3)cc3ccccc23)CC1 [Example 286] | < 100 | < 1000 |
| CC(C)(O)c1ncc(-c2cc(C3(NC(=O)c4ccccc4CNC(=O)C(=O)NCC#N)CC3)c3ccccc3c2)s1 [Example 287] | < 100 | < 1000 |
| Cc1n[nH]c(C)c1-c1cc(C2(NC(=O)c3ccccc3CNC(=O)C(=O)NCC#N)CC2)c2ccccc2c1 [Example 288] | < 100 | 1000 to 10000 |
| Cn1ccc(-c2cc(C3(NC(=O)c4ccccc4CNC(=O)C(=O)NCC#N)CC3)c3ccccc3c2)n1 [Example 290] | < 100 | < 1000 |
| N#CCNC(=O)C(=O)NCc1ccccc1C(=O)NC1(c2cc(-c3ccn(C(F)F)n3)cc3ccccc23)CC1 [Example 293] | < 100 | < 1000 |
| N#CCNC(=O)C(=O)NCc1ccccc1C(=O)NC1(c2cc(C#N)cc3ccccc23)CC1 [Example 294] | < 100 | < 1000 |
| Cc1nn(C)c(C)c1-c1cc(F)cc(C2(NC(=O)c3ccccc3CNC(=O)C(=O)NCC#Cc3nccs3)CC2)c1F [Example 295] | < 100 | < 1000 |
| O=C(NCC#Cc1nccs1)C(=O)NCc1ccccc1C(=O)NC1(c2cc(-c3ccn(C(F)F)n3)cc(F)c2F)CC1 [Example 296] | < 100 | < 1000 |
